Where “and” joins values, the source holds several entries; their conditions need not be identical. Equal entries are not always repeated.
Tested on: EAAT2
Assay: EAAT2 protein levels in PA-EAAT2 cells by Western blot
Format: cell-based, human
Conditions: for Improvement of potency/activity compared to 1: compared to compound 1, Table 4; for Fold increase for EAAT2, 4 h / Fold increase for EAAT2, 24 h: compound 10 μM, PA-EAAT2 cells, relative to DMSO controls, na = not active; for Fold increase for EAAT2, 4 h: 4 h incubation; for Fold increase for EAAT2, 24 h: 24 h incubation; for SAR comparison of activity on EAAT2 protein levels, in words: relative to parent/comparator analogue, Tables 1-4
Description: All of the derivates of 1 were initially evaluated in PA-EAAT2 cells^3 (a primary astrocyte line stably expressing EAAT2 mRNAs) following compound (10 μM) incubation for 4 and 24 h before harvesting and measuring EAAT2 levels by Western blot analysis. The fold increases in EAAT2 protein levels relative to DMSO controls are reported (Tables 1-4).
Characterization and efficacy studies of a compound, Compound 212320 (FIG. 6A) is shown. […] In the absence of serum, PA-EAAT2 cells express low amounts of EAAT2 protein, although the recombinant EAAT2 mRNA are expressed (translational silencing); however, EAAT2 protein levels are increased when an activator is added to the culture (translational activation). This cell line was used for high-throughput screening to identify EAAT2 translational activators. To prioritize candidate compounds, we initially evaluated activation of EAAT2 protein in PA-EAAT2 cells. Promising compounds were further evaluated in primary dissociated neuron and astrocyte mixed cultures and then in mice. FIG. 6 presents the characterization of Compound 212320 in PA-EAAT2 cells. Compound 212320 increased EAAT2 protein levels in a dose—(FIG. 6B) and time—(FIG. 6C) dependent manner. Importantly, the induction occurred in a short amount of time (within 1-2 hr) and was sustained even up to 72 hr (data not show). Additionally, induction occurred at low nanomolar concentrations. […] (FIG. 6D).

Row | SMILES | Improvement of potency/activity compared to 1 | Fold increase for EAAT2, 4 h | Fold increase for EAAT2, 24 h | EAAT2 protein levels, dose dependence (after 24 h exposure) | SAR comparison of activity on EAAT2 protein levels, in words
1 | CC(Sc1ccc(-c2ccccn2)nn1)c1c(F)cccc1Cl (racemic) [Compound 7-14] | about 3 fold | 1.7 ± 0.9 fold | 5.5 ± 1.0 fold | – | –
2 | c1ccc(-c2ccc(SC3CCCc4ccccc43)nn2)nc1 (racemic) [Compound 7-33] | about 3 fold | – | 5.3 ± 1.1 fold | – | –
3 | CC(Oc1ccc(-c2ccccn2)nn1)c1c(F)cccc1Cl (racemic) [Compound 8-4] | – | 1.6 ± 0.2 fold | 3.0 ± 0.7 fold | – | –
4 | Fc1cccc(Cl)c1CSc1ccc(-c2ccccn2)nn1 [Compound 1] | – | – | 2.0 ± 0.8 fold | dose-dependent increase | –
5 | Oc1ccc(-c2ccccn2)nn1 [Compound 5-1] | – | 1.5 ± 0.5 fold | 1.6 ± 1.0 fold | – | –
6 | Sc1ccc(-c2ccccn2)nn1 [Compound 6-1] | – | – | 2.0 ± 0.8 fold | – | essentially the same potency as 1
7 | Fc1cccc(Cl)c1CSc1ccc(-c2cccnc2)nn1 [Compound 7-1] | – | – | 2.3 ± 0.8 fold | – | reduced activity
8 | Fc1cccc(Cl)c1CSc1ccc(-c2ccncc2)nn1 [Compound 7-2] | – | – | 1.9 ± 0.9 fold | – | reduced activity
9 | Cc1ccc(-c2ccc(SCc3c(F)cccc3Cl)nn2)cc1 [Compound 7-3] | – | 1.2 ± 0.2 fold | 2.3 ± 0.7 fold | – | –
10 | Cc1ccccc1CSc1ccc(-c2cccnc2)nn1 [Compound 7-5] | – | 1.5 ± 0.4 fold | – | – | reduced activity
11 | Cc1ccccc1CSc1ccc(-c2ccccc2)nn1 [Compound 7-6] | – | 1.1 ± 0.1 fold | 2.0 ± 0.4 fold | – | reduced activity
12 | Clc1ccccc1CSc1ccc(-c2ccccn2)nn1 [Compound 7-7] | two-fold | 2.1 ± 1.4 fold | 4.0 ± 0.3 fold | – | –
13 | Clc1ccccc1CSc1ccc(-c2cccnc2)nn1 [Compound 7-8] | – | 1.2 ± 0.4 fold | 1.2 ± 0.3 fold | – | reduced activity
14 | Clc1ccccc1CSc1ccc(-c2ccncc2)nn1 [Compound 7-9] | – | 1.5 ± 0.2 fold | 1.7 ± 0.3 fold | – | reduced activity
15 | Cc1ccc(CSc2ccc(-c3ccccn3)nn2)cc1 [Compound 7-10] | – | 2.1 ± 1.1 fold | 2.6 ± 0.4 fold | – | –
16 | Cc1ccc(CSc2ccc(-c3ccncc3)nn2)cc1 [Compound 7-11] | – | 1.3 ± 0.1 fold | 2.4 ± 0.6 fold | – | reduced activity
17 | c1ccc(CSc2ccc(-c3ccccn3)nn2)cc1 [Compound 7-12] | – | 1.3 ± 0.2 fold | 3.0 ± 0.4 fold and 3.0 ± 0.5 fold | – | essentially the same potency as 1
18 | Cc1cccc(C)c1CSc1ccc(-c2ccccn2)nn1 [Compound 7-13] | – | – | 6.5 ± 1.0 fold | – | increased potency

Row | SMILES | Improvement of potency/activity compared to 1 | Fold increase for EAAT2, 4 h | Fold increase for EAAT2, 24 h | EAAT2 protein levels, dose dependence (after 24 h exposure) | SAR comparison of activity on EAAT2 protein levels, in words
19 | Fc1cccc(Cl)c1CCSc1ccc(-c2ccccn2)nn1 [Compound 7-15] | – | 1.9 ± 0.7 fold | 6.7 ± 1.5 fold | – | more potent
20 | Fc1ccc(CSc2ccc(-c3ccccn3)nn2)c(F)c1 [Compound 7-16] | – | 2.4 ± 1.5 fold | 3.8 ± 0.8 fold | – | improved activity
21 | Cc1ccc(CSc2ccc(-c3ccccn3)nn2)c(C)c1 [Compound 7-17] | – | 1.9 ± 0.8 fold | 6.4 ± 1.0 fold | – | increased potency
22 | Clc1cccc(CSc2ccc(-c3ccccn3)nn2)c1 [Compound 7-18] | two-fold | 2.1 ± 0.3 fold | 4.1 ± 0.5 fold | – | –
23 | Clc1cccc(CSc2ccc(-c3ccccn3)nn2)c1Cl [Compound 7-19] | – | – | 2.4 ± 0.4 fold | – | equivalent to 1
24 | Clc1ccc(Cl)c(CSc2ccc(-c3ccccn3)nn2)c1 [Compound 7-20] | – | 1.4 ± 0.1 fold | 2.5 ± 0.4 fold | – | equivalent to 1
25 | Clc1ccc(CSc2ccc(-c3ccccn3)nn2)c(Cl)c1 [Compound 7-21] | – | 1.8 ± 0.5 fold | – | – | equivalent to 1
26 | Clc1cccc(Cl)c1CSc1ccc(-c2ccccn2)nn1 [Compound 7-22] | two-fold | 1.5 ± 0.8 fold | 3.9 ± 0.4 fold | – | –
27 | Fc1ccccc1CSc1ccc(-c2ccccn2)nn1 [Compound 7-23] | – | 2.2 ± 0.1 fold | 3.1 ± 0.2 fold | – | improved activity
28 | Fc1ccc(CSc2ccc(-c3ccccn3)nn2)cc1 [Compound 7-24] | – | 2.5 ± 0.6 fold | 2.6 ± 0.3 fold | – | did not result in significant improvement
29 | Fc1cccc(F)c1CSc1ccc(-c2ccccn2)nn1 [Compound 7-25] | – | 2.1 ± 1.4 fold | 2.2 ± 0.7 fold | – | did not result in significant improvement
30 | Fc1cc(F)c(CSc2ccc(-c3ccccn3)nn2)c(F)c1 [Compound 7-26] | – | 1.6 ± 1.0 fold | 2.4 ± 0.6 fold | – | did not result in significant improvement
31 | Cc1cccc(CSc2ccc(-c3ccccn3)nn2)c1 [Compound 7-27] | – | 2.0 ± 0.2 fold | 2.8 ± 0.5 fold | – | less potent
32 | Cc1ccc(CSc2ccc(-c3ccccn3)nn2)cc1 [Compound 7-28] | – | – | – | – | less potent
33 | Cc1ccc(Sc2ccc(-c3ccccn3)nn2)c(C)c1 [Compound 7-29] | – | 1.2 ± 0.3 fold | 2.2 ± 0.3 fold | – | decreased potency
34 | Cc1cc(C)c(CSc2ccc(-c3ccccn3)nn2)c(C)c1 [Compound 7-30] | – | 1.7 ± 0.3 fold | 4.7 ± 0.5 fold | – | increased potency
35 | Clc1ccccc1CCSc1ccc(-c2ccccn2)nn1 [Compound 7-31] | – | 1.7 ± 0.2 fold | 4.8 ± 0.6 fold | – | more potent
